According to BindingDB's records for PubMed 22084396 (Genentech, Inc and Exelixis):

Tests used:
[1] = target: Serine/threonine-protein kinase 4, STK4/MST1 (Homo sapiens) (UniProt Q13043); test: Inhibition of MST1 (unknown origin)
[2] = target: 3-phosphoinositide-dependent protein kinase 1, PDPK1 (Homo sapiens) (UniProt O15530); test: Inhibition of PDK1 (unknown origin)
Chain of 3-phosphoinositide-dependent protein kinase 1, PDPK1 (Homo sapiens) (O15530 whole entry, looked up): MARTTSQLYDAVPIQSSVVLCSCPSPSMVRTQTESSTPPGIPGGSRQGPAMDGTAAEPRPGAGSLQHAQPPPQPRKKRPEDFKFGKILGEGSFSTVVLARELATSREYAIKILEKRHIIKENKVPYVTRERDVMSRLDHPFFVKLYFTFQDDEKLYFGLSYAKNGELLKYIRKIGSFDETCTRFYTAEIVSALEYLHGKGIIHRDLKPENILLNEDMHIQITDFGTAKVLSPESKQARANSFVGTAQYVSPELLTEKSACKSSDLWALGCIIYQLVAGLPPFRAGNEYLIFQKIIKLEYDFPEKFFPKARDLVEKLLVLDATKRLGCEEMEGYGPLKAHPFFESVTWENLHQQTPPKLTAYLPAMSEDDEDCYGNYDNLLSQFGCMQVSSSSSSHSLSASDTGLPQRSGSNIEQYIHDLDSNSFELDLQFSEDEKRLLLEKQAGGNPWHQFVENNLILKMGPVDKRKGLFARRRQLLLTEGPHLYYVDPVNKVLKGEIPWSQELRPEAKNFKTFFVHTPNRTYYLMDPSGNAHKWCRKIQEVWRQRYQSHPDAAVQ

Chain of Serine/threonine-protein kinase 4, STK4/MST1 (Homo sapiens) (Q13043 whole entry, looked up): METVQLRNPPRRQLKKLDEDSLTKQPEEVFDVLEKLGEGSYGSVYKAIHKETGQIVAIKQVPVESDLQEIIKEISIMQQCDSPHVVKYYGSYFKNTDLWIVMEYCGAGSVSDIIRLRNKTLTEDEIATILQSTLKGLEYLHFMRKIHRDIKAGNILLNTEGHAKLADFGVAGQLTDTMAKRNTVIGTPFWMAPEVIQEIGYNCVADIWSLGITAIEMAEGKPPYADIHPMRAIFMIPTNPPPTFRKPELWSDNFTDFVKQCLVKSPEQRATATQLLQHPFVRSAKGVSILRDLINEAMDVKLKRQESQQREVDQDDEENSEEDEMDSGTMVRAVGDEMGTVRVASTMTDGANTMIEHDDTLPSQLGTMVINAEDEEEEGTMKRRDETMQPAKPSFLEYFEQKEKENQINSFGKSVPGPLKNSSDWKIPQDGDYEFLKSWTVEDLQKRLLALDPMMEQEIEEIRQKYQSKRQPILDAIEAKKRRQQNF

- IC50 [1]: > 10 µM
- IC50 [2]: > 10 µM
SMILES: O=C(c1ccc(F)c(F)c1Nc1ccc(I)cc1F)N1CC(O)([C@@H]2CCCCN2)C1
